The target of one experiment is T1, human CRHR2 (Homo sapiens, UniProt Q13324).
T1 construct: expressed in transfected cells
T1 sequence (Q13324 1-411): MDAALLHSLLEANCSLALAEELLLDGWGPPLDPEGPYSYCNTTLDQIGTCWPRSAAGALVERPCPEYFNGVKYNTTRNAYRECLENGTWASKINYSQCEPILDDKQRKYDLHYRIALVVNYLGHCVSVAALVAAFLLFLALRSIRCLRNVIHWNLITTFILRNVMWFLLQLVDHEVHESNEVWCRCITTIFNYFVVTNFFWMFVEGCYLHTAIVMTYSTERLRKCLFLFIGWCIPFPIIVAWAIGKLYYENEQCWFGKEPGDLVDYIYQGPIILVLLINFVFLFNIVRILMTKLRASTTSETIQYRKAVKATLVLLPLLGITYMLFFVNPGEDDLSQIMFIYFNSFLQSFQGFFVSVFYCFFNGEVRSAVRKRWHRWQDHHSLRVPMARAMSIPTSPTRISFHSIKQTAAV
As to the kind of experiment: CRHR2 radioligand binding, [125I]-anti-sauvagine-30, SK-N-MC membranes. The settings on record: CRHR2. The method, then: The binding profile of h-SCP (SEQ ID NO:1) at CRHR2 was determined in radioligand binding studies in a membrane preparation of SK-N-MC cells stably transfected with human CRHR2 using [^125I]-anti-sauvagine-30 as the radiolabel. […] The solution was then homogenized with a Polytron tissue grinder at a setting of 10 and 7×3 s (Brinkmann Instruments, Westbury, N.Y.). […] The supernatant was re-centrifuged at 26,892×g for 25 min at 4° Celsius with the final pellet being re-suspended in assay buffer. […] For competition studies, cell membranes of […] volume were incubated with either 60 pM [^125I]-anti-sauvagine-30 in 50 μl volume for the CRHR2 assay or with)[^125I]-([…]-sauvagine for the CRHR1 assay in the presence of 15 μl of competing ligand for 120 min having a total volume of 150 μl. […] The bound radioactivity was separated by filtration using a Multiscreen Resist manifold (Millipore Corp., Billerica, Mass., U.S.A). The filters were washed three times with ice-cold PBS at pH 7.5 and radioactivity retained on the filters was quantified by its liquid scintillation measured by a TopCount counter (Packard BioScience, Boston, Mass., U.S.A). All experiments were performed in triplicate. Data from individual competition curves were expressed as the percentage of specific [^125I]-anti-sauvagine-30 or)[^125I]-([…]-sauvagine binding (B) within each experiment. […] The competition curve obtained with h-SCP (SEQ ID NO:1) was biphasic.

Experiment [1] concerns anaesthetized male Sprague-Dawley rats. As to the kind of experiment: Hemodynamics in anaesthetized rats (IV bolus). The experiment is classed as in vivo, rat. The settings on record: healthy anaesthetized rats. Here is the method: The hemodynamic profile of h-SCP (SEQ ID NO:1) was determined in sodium pentobarbital anaesthetized male Sprague-Dawley rats (FIG. 10). A SPR-320 Mikro-Tip® integrated catheter-tipped micro-manometer (Millar Instruments, Houston, Tex., U.S.A.) was placed in the right femoral artery for blood pressure measurements, and another one directly in the left ventricle for LV pressure measurement. […] The changes in hemodynamic parameters induced by h-SCP (SEQ ID NO:1, full circle in FIG. 10) were blocked by pretreatment with anti-sauvagine-30 (SEQ ID NO:118, open circle in FIG. 10).

The subject of experiment [2] is dogs with advanced heart failure. As to the kind of experiment: Hemodynamic, angiographic, echocardiographic profile in anaesthetized dogs with advanced heart failure, IV infusion. The experiment is classed as in vivo, dog. Here is the method:
The effects of h-SCP (SEQ ID NO:1) on cardiovascular function were also assessed in anaesthetized dogs with advanced, irreversible heart failure of ischemic etiology (Sabbah et al., 1991, Am. J. Physiol., vol. 260, pp. H1379-H1384; Sabbah et al., 1994, Circulation, vol. 98, pp. 2852-2859; Chandler et al., 2002, Circ. Res., vol. 91, pp. 278-280). Progressive, advanced heart failure was produced in mongrel dogs by multiple sequential intracoronary microembolization with polystyrene latex microspheres. Dose infusions of 2.2, 4.3, and 7.3 ng/kg/min were administered intravenously over 60 minutes just following or just prior to hemodynamic, angiographic, echocardiographic, and Doppler measurements using conventional hemodynamic, angiographic, echocardiographic, and radiographic methods. The h-SCP polypeptide (SEQ ID NO:1) produced dose- (infusion-) dependent increases in LVEF and SV and decreases in left ventricular end diastolic pressure (LVEDP), left ventricular pressure during isovolumic relaxation (LV-dP/dt), systemic vascular resistance (SVR), and left ventricular end-systolic volume (LVESV) that correlated with plasma concentration. No significant change in heart rate, peak systolic aortic blood pressure, LV+dP/dt, mean pulmonary artery pressure, mean pulmonary artery wedge pressure, right atrial pressure, or myocardial oxygen consumption were recorded following any of the 1 hour intravenous infusions (Table 18 and FIGS. 12 A & B). The improvement in LV systolic and diastolic function was not associated with the development of de novo ventricular arrhythmias.
In order to determine the threshold effective dose-infusion in dogs with advanced heart failure, a further study was performed at lower dose infusions. In addition, the opportunity was taken to explore whether the increase in LVEF produced by higher dose-infusions of 4.3 ng/kg/min would remain stable over a longer infusion period, i.e. 120 minutes.
In order to understand the potential cardiovascular effects of neutralizing antibody formation to h-SCP (SEQ ID NO:1), SV30 (SEQ ID No. 118), a competitive antagonist of CRHR2, was administered to dogs (N=4) with advanced heart failure. […] These experiments with SV30 indicate that baseline cardiovascular parameters in dogs with advanced heart failure were not dependent upon endogenous hormone stimulation of CRHR2. Similar findings have been reported in healthy conscious and anaesthetized rats (Gardiner et al., J. Pharmacol. Exp. Ther., 2007, vol 321, pp. 221-226).

The next experiment concerns the target T2, CRHR1 (Homo sapiens, UniProt P34998).
T2 sequence (P34998 24-415): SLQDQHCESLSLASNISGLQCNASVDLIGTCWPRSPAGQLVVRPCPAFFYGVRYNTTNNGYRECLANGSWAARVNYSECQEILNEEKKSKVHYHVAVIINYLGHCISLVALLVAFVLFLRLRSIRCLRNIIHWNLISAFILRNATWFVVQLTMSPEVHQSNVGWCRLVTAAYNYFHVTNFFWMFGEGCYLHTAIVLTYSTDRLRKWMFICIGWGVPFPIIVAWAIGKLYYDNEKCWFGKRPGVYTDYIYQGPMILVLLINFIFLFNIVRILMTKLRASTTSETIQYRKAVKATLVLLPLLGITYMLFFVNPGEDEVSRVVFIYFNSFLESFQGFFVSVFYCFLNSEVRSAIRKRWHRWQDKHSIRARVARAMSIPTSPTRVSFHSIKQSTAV
As to the kind of experiment: CRHR1 radioligand binding, [125I]-(Tyr0)-sauvagine. The arrangement: host or cells: cell membranes. From the text:
The solution was then homogenized with a Polytron tissue grinder at a setting of 10 and 7×3 s (Brinkmann Instruments, Westbury, N.Y.). […] The bound radioactivity was separated by filtration using a Multiscreen Resist manifold (Millipore Corp., Billerica, Mass., U.S.A). The filters were washed three times with ice-cold PBS at pH 7.5 and radioactivity retained on the filters was quantified by its liquid scintillation measured by a TopCount counter (Packard BioScience, Boston, Mass., U.S.A). All experiments were performed in triplicate.

In experiment [3] the target is T3, human corticotrophin releasing hormone receptor type 2 (CRHR2) (human) (UniProt Q13324).
T3 sequence (looked up): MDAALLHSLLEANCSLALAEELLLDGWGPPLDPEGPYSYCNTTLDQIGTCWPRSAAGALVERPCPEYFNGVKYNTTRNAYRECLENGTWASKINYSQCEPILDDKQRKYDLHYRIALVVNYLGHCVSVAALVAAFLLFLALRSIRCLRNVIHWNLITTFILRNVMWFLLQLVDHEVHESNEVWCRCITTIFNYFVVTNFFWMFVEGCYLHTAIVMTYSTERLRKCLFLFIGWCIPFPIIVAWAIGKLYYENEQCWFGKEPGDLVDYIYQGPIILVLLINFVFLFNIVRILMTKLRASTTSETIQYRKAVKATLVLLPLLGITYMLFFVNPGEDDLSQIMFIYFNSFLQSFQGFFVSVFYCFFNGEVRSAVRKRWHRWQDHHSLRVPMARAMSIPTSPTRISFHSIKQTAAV
As to the kind of experiment: cell-based or functional assay.

Experiment [4] concerns the target T4, human corticotrophin releasing hormone receptor type 1 (CRHR1) (human, UniProt P34998 24-415).
T4 sequence (looked up): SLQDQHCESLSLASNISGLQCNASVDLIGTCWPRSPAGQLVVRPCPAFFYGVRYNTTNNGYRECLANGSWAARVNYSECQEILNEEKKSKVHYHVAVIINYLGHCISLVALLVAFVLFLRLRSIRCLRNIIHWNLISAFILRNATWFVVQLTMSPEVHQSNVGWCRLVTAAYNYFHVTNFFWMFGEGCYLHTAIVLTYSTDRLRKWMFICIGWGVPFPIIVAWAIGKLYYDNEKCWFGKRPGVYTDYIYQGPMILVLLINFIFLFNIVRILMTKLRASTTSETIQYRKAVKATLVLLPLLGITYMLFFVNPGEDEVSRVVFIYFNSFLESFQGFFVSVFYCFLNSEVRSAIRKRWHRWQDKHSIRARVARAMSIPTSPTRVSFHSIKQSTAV
As to the kind of experiment: cell-based or functional assay.

Experiment [5] has as its target T5, human corticotrophin releasing hormone receptor type 1 (CRHR1) (human), P34998.
T5 chain: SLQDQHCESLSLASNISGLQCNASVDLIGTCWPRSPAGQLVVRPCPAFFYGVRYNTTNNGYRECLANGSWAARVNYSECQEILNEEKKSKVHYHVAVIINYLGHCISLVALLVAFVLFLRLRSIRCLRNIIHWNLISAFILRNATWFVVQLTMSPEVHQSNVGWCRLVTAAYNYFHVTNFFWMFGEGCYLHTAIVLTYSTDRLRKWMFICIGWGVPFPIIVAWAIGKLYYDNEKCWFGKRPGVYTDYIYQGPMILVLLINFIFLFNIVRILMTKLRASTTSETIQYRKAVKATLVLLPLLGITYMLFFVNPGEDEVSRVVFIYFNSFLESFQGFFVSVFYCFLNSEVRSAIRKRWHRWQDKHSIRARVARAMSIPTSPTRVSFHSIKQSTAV
As to the kind of experiment: radioligand competition against [125I]-(Tyr0)-sauvagine, CRHR1 assay, cell membranes. Particulars: remark: other sources report otherwise.

In experiment [6] the target is T3, human corticotrophin releasing hormone receptor type 2 (CRHR2) (human). As to the kind of experiment: radioligand competition against [125I]-anti-sauvagine-30, membranes of SK-N-MC cells with human CRHR2. In general terms: Loss of bound radioactivity is the signal in a displacement assay; it reports binding, not function.

Where no end group is shown, it is not given here.

`CC[C@H](C)[C@H](NC(=O)[C@@H](NC(=O)[C@H](CC(=O)O)NC(=O)[C@H](CC(C)C)NC(=O)[C@H](CC(C)C)NC(=O)[C@H](CC(C)C)NC(=O)[C@H](CCCNC(=N)N)NC(=O)[C@H](CC(N)=O)NC(=O)[C@H](CC(N)=O)NC(=O)[C@H](C)NC(=O)[C@H](C)NC(=O)[C@H](CCC(N)=O)NC(=O)[C@H](CCC(N)=O)NC(=O)[C@H](CCCCN)NC(=O)[C@H](CCC(=O)O)NC(=O)[C@H](CCCCN)NC(=O)[C@H](CCC(=O)O)NC(=O)[C@H](CCC(N)=O)NC(=O)[C@H](CCCCN)NC(=O)[C@H](CCC(=O)O)NC(=O)[C@@H](NC(=O)[C@H](CCC(=O)O)NC(=O)[C@@H](NC(=O)[C@H](CCSC)NC(=O)[C@H](CCCCN)NC(=O)[C@H](CCCNC(=N)N)NC(=O)[C@H](CC(C)C)NC(=O)[C@H](CC(C)C)NC(=O)[C@H](Cc1c[nH]cn1)NC(=O)C(N)Cc1ccccc1)[C@@H](C)CC)[C@@H](C)CC)[C@@H](C)O)C(N)=O` (stereo partly drawn) [SEQ ID NO: 118, FHLLRKMIEIEKQEKEKQQAANNRLLLDTI-NH2, reference compound]: the nH on human CRHR2 came out at 1.15 ± 0.12. The “effect on baseline hemodynamic parameters” value in experiment [1] was “did not inhibit baseline parameters”. Further, the “effect on cardiovascular parameters” value in experiment [2] (CRHR2 blocking doses in dogs with advanced heart failure (N=4)) was “without effect on cardiovascular parameters”. In addition, in experiment [2] (Table 20, AS-30 alone), the CO turned out to be 1.44 ± 0.04 L/min, the HR is 79 ± 3 beats/min, the “LV+dP/dt” value is on record as 1675 ± 109 mmHg/sec and the LVEDP amounted to 15 ± 1 mmHg. Further, in experiment [2] (Table 20, AS-30 alone), the LVEDV is 68 ± 2.7 mL, the LVEF came out at 27 ± 0%, the LVESV is 50 ± 1.9 mL and the MPAP is 16 ± 0.7 mmHg. In experiment [2] (Table 20, AS-30 alone), this molecule registered a PSAP of 94 ± 5 mmHg and an SV of 18 ± 0.8 mL. This molecule displayed a nH on CRHR1 of 1.00 ± 0.49.
As to FTLSLDVPTNIMNLLFNIAKAKNLRAQAAANAHLMAQI-NH2 [human urocortin III], the pA50 was 9.26 -log10(M) in experiment [3] and < 5 -log10(M) in experiment [4]. For the same molecule, the pKI is 4.96 -log10(M) in experiment [5] and 6.49 -log10(M) in experiment [6].

These data come from patent US20110105397A1, “METHOD FOR TREATING HEART FAILURE WITH STRESSCOPIN-LIKE PEPTIDES” (priority 2009, published 2011).
